Laboratory results as given in publication PMC9963887, “Towards Radiolabeled EGFR-Specific Peptides: Alternatives to GE11” (Pharmaceuticals, 2023).

Tested on: EGFR-positive A431 cells
Experiment: cell uptake / internalization studies on A431 cells
Format: cell-based, human
Conditions: 1 h incubation
Protocol: The cellular uptake was differentiated by membrane-bound and internalized activity. In these experiments, no EGFR-specific interaction of any of the radiolabeled agents [^68Ga]Ga-1–[^68Ga]Ga-11 was observed (Figure 5).
Internalization studies of [^68Ga]Ga-1–[^68Ga]Ga-11 on A431 cells. For this purpose, the A431 cells (10^6 per well) were seeded into 24-well cell culture multiwell plates (cellstar) and incubated for 2 days at 37 °C in a humidified CO2 (5%) atmosphere. Directly before the experiment, each well was washed twice with fresh internalization medium (PBS/DMEM, high glucose, 1/99, v/v), followed by the addition of internalization medium to a final volume of 1.35 mL per well. […] Afterwards, the medium was separated from the cells and each well was washed twice with 1 mL of ice-cold internalization medium, the washing solutions were added to the collected internalization medium and measured in a γ-counter (these combined solutions contain the unbound fraction). To determine the surface-bound fraction, each well was further incubated twice for 5 min with ice-cold glycine-buffer (pH 2.8, 0.05 M, 1 mL) and the supernatants were collected and measured. The internalized fraction was determined by lysing the cells twice for 5 min with sodium hydroxide solution (2 M, 1 mL), collection and measurement of the combined solutions. […]

Substance: [^125I]I-hEGF: ^125I-labeled hEGF from PerkinElmer, reference compound in cell uptake and competitor in displacement assays
- activity, internalized + bound to membrane, blocked (overall cellular uptake under blocking) (blocking with 100-fold excess hEGF): 1.9%
- activity, internalized + bound to membrane, unblocked (overall cellular uptake) (non-blocking conditions): 33.6%
